According to patent US20070099891A1, “Medicinal compositions and combinations” (priority 2003, published 2007):

What was measured:
[1] = single agent; not reduced more even if the dosage is increased; cited from earlier work
LDL receptor protein = experiment: Expression of LDL receptor protein in liver of endogenous hyperlipemia rabbit (immunoblotting); assay type: in vivo; conditions: casein diet
Description: For the rabbit used in Example 2, liver was taken out after one day of a final administration of the agent. A homogenizing buffer (20 mM Tris-HCl (pH 8.0), 1 mM CaCl2, 150 mM NaCl, a mix of protease inhibitor) was added to a part of this liver and the mixture was homogenized and centrifuged at 8000×g, 4° C. for 10 min., thereafter the supernatant was ultracentrifuged at […], 4° C. for 60 min. The resulting precipitate was washed by adding the homogenizing buffer and centrifuging at 10,000×g, 4° C. for 30 min., and thereafter was suspended in a suspension buffer (125 mM Tris-maleate (pH 6.8), 1 mM CaCl2, 160 mM NaCl, 1% (w/v) Triton X-100, Protease inhibitor (Complete™, Boehringer Ingelhaim Co., Ltd., Ingelheim, Germany)) to prepare a fraction of the liver membrane. After mixing with a buffer (125 mM Tris-HCl (pH 6.8), 20% (v/v) glycerol, 4% (w/v) sodium dodecyl sulfate (hereinafter, referred to as SDS) and 0.001% (w/v) bromophenol blue), the fraction was subjected to SDS polyacrylamide electrophoresis (using a 7.5% polyacrylamide gel), and the resultant was transferred to a polyvinylidene difluoride (PVDF) membrane and then the amount of LDL receptor protein was evaluated by an immunoblotting using anti-LDL receptor antibody. […]

[2] = tested on: rabbit with endogenous hyperlipemia caused by a casein diet load; experiment: Blood cholesterol lowering action in endogenous hyperlipemia rabbit (casein diet); assay type: in vivo, New Zealand White rabbit
Description: 8 weeks old male New Zealand White rabbit were bred for 12 days with ad libitum water and feeding conditions (rabbit·guinea pig breeding feed RC4, Oriental Yeast Co., Ltd., Tokyo, Japan). Thereafter, the diet was replaced with the casein diet containing 27% casein (Oriental Yeast Co., Ltd., Tokyo, Japan), and then the restricted feeding to the 100 g per 3 kg weight was performed for one week. At this point, the blood was collected via auricular veins and the plasma total cholesterol amounts was measured and then these rabbits were divided such that the mean of the weight and the plasma total cholesterol were equal approximately. […] Each agent was dissolved in propylene glycol containing 0.5% polyoxyethylenesorbitan monooleate (Tween 80) and then these were administered orally. On the other hand, for control group, the solvent (propylene glycol comprising 0.5% Tween 80) was administered orally. At one day after final administration, the blood was collected and plasma total cholesterol was measured and also the lipoprotein was fractioned according to the differential ultracentrifugation method (Nobuhiro, Yamada, Yasushi Sato edit.: Study strategy of Arteriosclerotic+Hyperlipemia, 63-69, 1996, Shujunsha Co. Ltd.), and then the amounts of cholesterol in the fraction of LDL were measured. The amount of total cholesterol in plasma and the amount of cholesterol in LDL fraction were determined by using an automatic biochemical analyzer (Biochemical Analyzer CHEM 1, Bayer Corporation, NY, USA).

HepG2 cell = experiment: LDL binding, uptake and degradation activity in cultured human hepatic cell line HepG2 ([125I]LDL); assay type: cell-based; conditions: for Binding Amounts / Degradation Amounts / Uptake Amounts: mean ± standard error, 6 experiments
Description: The cultured human hepatic cell line HepG2 cell was purchased from the Dainippon Pharmaceuticals Co. Ltd. (Osaka, Japan). The determinations of LDL binding, uptake and degradation activity were performed according to a prior report (Method in Enzymology, 98, 241-255, 1983). Cells were seeded in a 24 well plate and were incubated in the Dulbecco's modified Eagle/F-12 (DMEM/F-12) medium containing 10% fetal bovine serum and antibiotics at 37° C. for two days. After washing the cells, a DMEM/F-12 medium containing 10% lipoprotein-removed serum, the test substrate and the antibiotics was added and the cells were incubated at 37° C. for 19 hours. After adding [^125I]LDL, the cells were incubated at 37° C. for another 5 hours. The culture supernatant was collected and trichloroacetic acid was added thereto, and then it was statically kept for 30 minutes or more at 4° C. After centrifuging (700×g, 4° C., 15 min.), the supernatant was separated and sodium iodide was added thereto, and further hydrogen peroxide was added. After treating the mixture at room temperature for 5 min., chloroform was added and the mixture was stirred. After centrifuging (700×g, 4° C., 5 min.), the radioactivity in the supernatant was measured by a gamma counter, and then the data thus obtained was evaluated as an amount of degradation of LDL. Separately, after washing the cells thoroughly, a dissociation buffer (50 mM NaCl, 10 mM 2-[4-(2-hydroxyethyl)-1-piperadinyl]ethane sulfonic acid (HEPES, pH 7.4), 10 mg/mL heparin) was added and then the cells were statically kept at 4° C. for 60 min. or more. […] Furthermore, 1N sodium hydroxide was added to the remaining cells and the mixture was reacted for more than 10 min. to dissolve the cells. […] On the other hand, the amounts of non-specific degradation, binding and uptake were evaluated by coexisting an excess of non-labeled LDL on addition of [^125I] LDL, while the amounts of specific degradation, binding and uptake were obtained by subtracting the amounts of non-specific degradation, binding and uptake from the total amounts of degradation, binding and uptake and further calibrating with the amounts of protein.

[3] = 1 mg/kg orally for 3 weeks, mean ± standard error

O=C1[C@H](CC[C@H](O)c2ccc(F)cc2)[C@@H](c2ccc(O)cc2)N1c1ccc(F)cc1 [ezetimibe, 1-(4-fluorophenyl)-3(R)-[3-(4-fluorophenyl)-3(S)-hydroxypropyl]-4(S)-(4-hydroxyphenyl)-2-azetidinone]
degree of lowering of LDL cholesterol [1]: 15 to 20%

CCCCn1c(=O)c(NC(=O)Nc2c(C(C)C)cc(N)cc2C(C)C)c(-c2cccc(OCCCO)c2)c2cccnc21 [Compd. A, N-[1-butyl-4-[3-[3-(hydroxy)propoxy]phenyl]-1,2-dihydro-2-oxo-1,8-naphthyridine-3-yl]-N′-(2,6-diisopropyl-4-aminophenyl)urea]
amount of the expression of LDL receptor protein in liver (in words, FIG. 1) (LDL receptor protein; compound A 1 mg/kg): increased
plasma LDL cholesterol [2, 3]: 52 ± 9 mg/dL
plasma total cholesterol [2, 3]: 108 ± 5 mg/dL
plasma total cholesterol lowering action and plasma LDL cholesterol lowering action (in words) ([2]; 1 mg/kg, compared to control): significant effects
amounts of binding, uptake and degradation of LDL (in words) (HepG2 cell; compound A 0.01 to 1 μM): increased
Binding Amounts (HepG2 cell; single agent 0.01 μM): 85.2 ± 3.6 ng/mg protein
Degradation Amounts (HepG2 cell; single agent 0.01 μM): 927.5 ± 90.0 ng/mg protein
Uptake Amounts (HepG2 cell; single agent 0.01 μM): 852.9 ± 47.3 ng/mg protein
Binding Amounts (HepG2 cell; single agent 0.1 μM): 90.9 ± 4.1 ng/mg protein
Degradation Amounts (HepG2 cell; single agent 0.1 μM): 1016.8 ± 45.3 ng/mg protein
Uptake Amounts (HepG2 cell; single agent 0.1 μM): 886.4 ± 29.2 ng/mg protein
Binding Amounts (HepG2 cell; single agent 1 μM): 93.7 ± 2.5 ng/mg protein
Degradation Amounts (HepG2 cell; single agent 1 μM): 1126.3 ± 70.3 ng/mg protein
Uptake Amounts (HepG2 cell; single agent 1 μM): 1172.2 ± 46.2 ng/mg protein

CC(C)c1c(C(=O)Nc2ccccc2)c(-c2ccccc2)c(-c2ccc(F)cc2)n1CC[C@@H](O)C[C@@H](O)CC(=O)O [Atorvastatin, atorvastatin, reference compound]
amount of the expression of LDL receptor protein in liver (in words, FIG. 1) (LDL receptor protein; atorvastatin 1 and 3 mg/kg): increased
Binding Amounts (HepG2 cell; single agent 0.1 μM): 81.7 ± 2.1 ng/mg protein
Degradation Amounts (HepG2 cell; single agent 0.1 μM): 800.9 ± 32.5 ng/mg protein
Binding Amounts (HepG2 cell; single agent 1 μM): 86.3 ± 2.7 ng/mg protein
Degradation Amounts (HepG2 cell; single agent 1 μM): 1000.5 ± 62.9 ng/mg protein
Binding Amounts (HepG2 cell; single agent 10 μM): 95.5 ± 4.0 ng/mg protein
Degradation Amounts (HepG2 cell; single agent 10 μM): 1062.3 ± 66.0 ng/mg protein
